Assay results taken from patent US10052311B2, “PPAR compounds for use in the treatment of fibrotic diseases” (INVENTIVA, priority 2014, dated 2018).

What was measured:
anti-GBM exposed mice = experiment: Anti-GBM induced glomerulonephritis in mice; assay type: in vivo, mouse; details: vs vehicle
human PPARα = biological target: T1, human PPARα (Homo sapiens, UniProt Q07869); experiment: Transient transactivation assay, Cos-7 cells, chimeric PPARα-Gal4, luciferase reporter; assay type: cell-based; details: Gal4 chimera, mean of 6 experiments
T1 sequence (Q07869 200-468 limits assumed): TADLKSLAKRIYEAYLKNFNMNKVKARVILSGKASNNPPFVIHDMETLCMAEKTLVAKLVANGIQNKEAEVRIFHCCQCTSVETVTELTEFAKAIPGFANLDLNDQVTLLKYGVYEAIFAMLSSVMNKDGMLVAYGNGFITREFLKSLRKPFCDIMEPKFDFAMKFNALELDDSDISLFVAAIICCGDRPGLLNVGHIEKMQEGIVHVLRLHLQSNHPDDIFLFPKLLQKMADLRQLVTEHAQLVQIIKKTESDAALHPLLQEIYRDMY
Method: (§1) Transfections were performed by a chemical agent (Jet PEI).

mouse PPARα = biological target: T2, mouse PPARα (Mus musculus, UniProt P23204); experiment: as above; assay type: cell-based; details: Gal4 chimera, mean of 6 experiments
T2 sequence (P23204 200-468 limits assumed): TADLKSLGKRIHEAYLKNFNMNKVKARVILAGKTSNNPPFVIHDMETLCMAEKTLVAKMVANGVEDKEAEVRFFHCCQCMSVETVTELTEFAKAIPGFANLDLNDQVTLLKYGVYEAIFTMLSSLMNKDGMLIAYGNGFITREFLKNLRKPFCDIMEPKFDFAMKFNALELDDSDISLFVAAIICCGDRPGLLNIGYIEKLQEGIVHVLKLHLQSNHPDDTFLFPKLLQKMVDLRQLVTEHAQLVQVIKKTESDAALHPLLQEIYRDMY
Method: as §1

human PPARγ = human PPARγ (Homo sapiens, UniProt P37231); experiment: cell-based
Chain of human PPARγ (P37231 238-505 limits assumed): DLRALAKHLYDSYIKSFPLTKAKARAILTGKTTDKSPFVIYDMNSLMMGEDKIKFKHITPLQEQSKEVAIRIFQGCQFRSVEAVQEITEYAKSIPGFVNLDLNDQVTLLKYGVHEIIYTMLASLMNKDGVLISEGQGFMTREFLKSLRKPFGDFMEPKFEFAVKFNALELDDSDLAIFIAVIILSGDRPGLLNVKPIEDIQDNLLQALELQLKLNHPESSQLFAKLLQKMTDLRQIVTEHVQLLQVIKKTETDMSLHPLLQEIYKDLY

mouse PPARγ = mouse PPARγ (Mus musculus, UniProt P37238); experiment: cell-based
Chain of mouse PPARγ (P37238 238-505 limits assumed): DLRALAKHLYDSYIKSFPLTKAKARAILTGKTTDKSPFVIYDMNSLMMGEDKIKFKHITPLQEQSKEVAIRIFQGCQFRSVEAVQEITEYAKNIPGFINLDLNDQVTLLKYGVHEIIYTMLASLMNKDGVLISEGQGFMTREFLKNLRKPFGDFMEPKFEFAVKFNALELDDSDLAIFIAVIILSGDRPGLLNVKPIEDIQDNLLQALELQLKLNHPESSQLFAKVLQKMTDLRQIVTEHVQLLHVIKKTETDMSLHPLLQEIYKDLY

bleomycin-exposed mice = experiment: Bleomycin-induced pulmonary fibrosis in mice; details: vs vehicle
Method: At the end of the treatment, animals were sacrificed and plasma samples and livers were harvested. Expression of genes that are known to be implicated in the pulmonary inflammation process was quantified and plasmatic levels of lung parameters were measured.
The animals were housed in groups of 3-10 in polypropylene cages (floor area=1032 cm^2) under standard conditions: room temperature (22±2° C.), hygrometry (55±10%), light/dark cycle (12 h/12 h), air replacement (15-20 volumes/hour), water and food (SDS, RM1) ad libitum. Mice were allowed to accommodate themselves for at least 5 days prior to the experimentation. Mice were numbered by marking their tail using indelible markers.
Bleomycin (Laboratoire Bellon) was dissolved in 0.9% NaCl (CDM Lavoisier, France) just before use.
On day 14, 2 hours after dosing, animals were anaesthetised with pentobarbital (60 mg/kg, ip) and blood was collected using cardiac puncture. […] Blood sampling (0.9 mL of total blood) was placed in pre-chilled 2-mL lithium-heparin collection tubes. The blood samples were gently mixed, placed on crushed ice and centrifuged within 30 min of sampling at approximately 1500×g for 10 min at approximately +4° C. For each blood sampling, the resultant plasma was separated into 2 aliquots (at least 100 μL each) and transferred using disposable plastic material into polypropylene tubes. The samples were immediately transferred in the upright position to a freezer where they were kept at −20° C.
After terminal blood sampling, lung tissue was removed: • A first tissue sample (middle lobe) was harvested and fixed with paraformaldehyde, and kept at 5±3° C. • A second tissue sample (right lobe) was frozen in liquid nitrogen and kept at −20° C.
For the quantification of collagen, sections were stained with Picro-Sirius red and counterstained with Mayer's haematoxylin. […] For all slides, analysis was performed by a single experimenter strictly in the same conditions.
mRNA extraction was performed on small frozen lung samples (50-100 mg). Briefly, samples were cryogenically ground with mortar and pestle. […] RNA quantity was determined with Nanodrop (ND2000 Thermo Scientific) and RNA quality was verified with Bioanalyzer (2100 Agilent Technology).
Real Time PCR was performed on ABI PRISM 7900 apparatus Raw data from ABI7900 were exported in text format. […] Each RNA samples were reverse transcribed and quantified in triplicate.
Samples of lung and supernatants were kept on ice during all experiment. For extraction, the manufacturer recommends 10 mg of tissue for 100 μl T-Per+1 μl “Halt-protease” (100×).
50 ml of T-Per buffer were prepared, to which 500 μl of “Halt-protease” (100×) were added, and the mixture was kept on ice. Samples of 50 to 70 mg of lung just thawed were weighed and cut into small pieces, and 1 ml of cold PBS was added to wash the tissue. The mixture was centrifuged at 500 g during 5 min at 4° C., and the supernatant was discarded. 100 μl/10 mg of T-Per+antiproteases (100×) were added, crushing the lung with a Potter, with 5 or 6 twists, up and down. The mixture was centrifuged at 10000 g during 5 min at 4° C. The supernatant was removed, aliquoted and kept at −20° C. for the subsequent measurement of biomarkers.
All proteins were quantified with ELISA Kit, according to the instructions of the manufacturers: • osteopontin: Quantikine Mouse Osteopontin immunoassay, R&D SYSTEMS®, Ref:MOST00 • MCP-1: Quantikine Mouse CCL2/JE/MCP-1 ELISA Kit, R&D SYSTEMS®, ref: MJE00 • TIMP-1: Mouse TIMP-1, R&D SYSTEMS®, Ref: TM100.
All parameters were analysed using Graphpad software (version 5.1). The parameters were analysed as followed: • Using one-way ANOVA (treatment) to compare groups (1, 2 and 3). […] When ANOVA was found significant, a Dunnett's test was used to compare group 1 to group 4, to group 5, to group 6 and to group 7).

O=C(O)CCCc1cc2cc(Cl)ccc2n1S(=O)(=O)c1ccc2ncsc2c1 [compound A, 5-Chloro-1-[(6-benzothiazolyl)sulfonyl]-1H-indole-2-butanoic acid]
Col1a expression (kidney) (anti-GBM exposed mice; 30 mg/kg/day po 7 days): reduced
Col3a expression (kidney) (anti-GBM exposed mice; 30 mg/kg/day po 7 days): reduced
kidney MCP-1 levels (anti-GBM exposed mice; 30 mg/kg/day po 7 days): reduced
kidney osteopontin levels (anti-GBM exposed mice; 30 mg/kg/day po 7 days): reduced
serum urea levels (anti-GBM exposed mice; 30 mg/kg/day po 7 days): reduced
urinary albumin levels (anti-GBM exposed mice; 30 mg/kg/day po 7 days): reduced
urinary volume (anti-GBM exposed mice; 30 mg/kg/day po 7 days): reduced urinary volume compared to vehicle without reaching significance
Col1a expression (kidney) (anti-GBM exposed mice; 100 mg/kg/day po 7 days): significantly inhibited Col1a expression
Col3a expression (kidney) (anti-GBM exposed mice; 100 mg/kg/day po 7 days): significantly inhibited Col3a expression
TGFβR-1 expression (kidney) (anti-GBM exposed mice; 100 mg/kg/day po 7 days): significantly inhibited TGFβ-R1 expression
kidney MCP-1 levels (anti-GBM exposed mice; 100 mg/kg/day po 7 days): significantly reduced MCP-1 levels
kidney osteopontin levels (anti-GBM exposed mice; 100 mg/kg/day po 7 days): significantly reduced osteopontin levels
number of pathological glomeruli (anti-GBM exposed mice; 100 mg/kg/day po 7 days): significantly reduced the number of pathological glomeruli
serum urea levels (anti-GBM exposed mice; 100 mg/kg/day po 7 days): significantly reduced urea levels
urinary albumin levels (anti-GBM exposed mice; 100 mg/kg/day po 7 days): reduced albumin levels compared to vehicle without reaching significance
urinary volume (anti-GBM exposed mice; 100 mg/kg/day po 7 days): reduced urinary volume compared to vehicle without reaching significance
EC50 (human PPARα): 0.92 µM
EC50 (mouse PPARα): 0.29 µM
EC50 (human PPARγ): 0.18 µM
EC50 (mouse PPARγ): 0.17 µM
MCP-1 expression (lung) (bleomycin-exposed mice; 30 mg/kg/day po 15 days): inhibited MCP-1 expression compared to vehicle without reaching significance
TIMP-1 expression (lung) (bleomycin-exposed mice; 30 mg/kg/day po 15 days): inhibited TIMP-1 expression compared to vehicle without reaching significance
lung MCP-1 levels (bleomycin-exposed mice; 30 mg/kg/day po 15 days): reduced MCP-1 levels compared to vehicle without reaching significance
lung TIMP-1 levels (bleomycin-exposed mice; 30 mg/kg/day po 15 days): significantly reduced TIMP-1 levels
lung osteopontin levels (bleomycin-exposed mice; 30 mg/kg/day po 15 days): reduced osteopontin levels compared to vehicle without reaching significance
osteopontin expression (lung) (bleomycin-exposed mice; 30 mg/kg/day po 15 days): significantly inhibited osteopontin expression
Col1a expression (lung) (bleomycin-exposed mice; 100 mg/kg/day po 15 days): significantly inhibited Col1a expression
Col3a expression (lung) (bleomycin-exposed mice; 100 mg/kg/day po 15 days): significantly inhibited Col3a expression
MCP-1 expression (lung) (bleomycin-exposed mice; 100 mg/kg/day po 15 days): inhibited MCP-1 expression compared to vehicle without reaching significance
TGFβR-1 expression (lung) (bleomycin-exposed mice; 100 mg/kg/day po 15 days): significantly inhibited TGFβR-1 expression
TIMP-1 expression (lung) (bleomycin-exposed mice; 100 mg/kg/day po 15 days): inhibited TIMP-1 expression compared to vehicle without reaching significance
collagen deposition (lung) (bleomycin-exposed mice; 100 mg/kg/day po 15 days): significantly decreased collagen deposition levels
fibronectin expression (lung) (bleomycin-exposed mice; 100 mg/kg/day po 15 days): significantly inhibited fibronectin expression
lung MCP-1 levels (bleomycin-exposed mice; 100 mg/kg/day po 15 days): reduced MCP-1 levels compared to vehicle without reaching significance
lung TIMP-1 levels (bleomycin-exposed mice; 100 mg/kg/day po 15 days): significantly reduced TIMP-1 levels
lung osteopontin levels (bleomycin-exposed mice; 100 mg/kg/day po 15 days): reduced osteopontin levels compared to vehicle without reaching significance
osteopontin expression (lung) (bleomycin-exposed mice; 100 mg/kg/day po 15 days): significantly inhibited osteopontin expression
